Measured values as given in publication PMC5452035, “Structural insight into recognition of phosphorylated threonine‐4 of RNA polymerase II C‐terminal domain by Rtt103p” (EMBO Reports, 2017).
Substitutions are numbered along the chain they refer to. Non-standard residues stand in square brackets, D forms with d. No end group written: not given here. pY = N[C@@H](Cc1ccc(OP(=O)(O)O)cc1)C(=O)O; FAM = 5,6-carboxyfluorescein

Columns and labels:
[1] = molecular target: T1, Rtt103p CID (Saccharomyces cerevisiae, UniProt Q05543); assay: Equilibrium binding by fluorescence anisotropy (FA), wild-type Rtt103p CID; parameters: species or system yeast
T1 construct: Rtt103p CID (3‐131–6xHIS) was expressed and purified as previously described; 6xHis (C); made in house; host or cells: E. coli BL21-Codon Plus (DE3)-RIPL
T1 sequence (Q05543 3-131): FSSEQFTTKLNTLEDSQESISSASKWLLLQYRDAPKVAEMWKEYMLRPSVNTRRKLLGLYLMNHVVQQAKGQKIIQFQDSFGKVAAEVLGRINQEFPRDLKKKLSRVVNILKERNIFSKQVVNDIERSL

[2] = molecular target: T2, Rtt103p CID Q19A (Saccharomyces cerevisiae, UniProt Q05543, Q19A); assay: Equilibrium binding by fluorescence anisotropy (FA), Rtt103p CID Q19A mutant; parameters: species or system yeast; conditions: Rtt103p CID Q19A mutant titrated into 10 nM FAM‐labelled CTD peptide, 10°C, pH 6.8, ± standard deviation of the fit
T2 construct: Rtt103p CID (3‐131–6xHIS) was expressed and purified as previously described; 6xHis (C); made in house; host or cells: E. coli BL21-Codon Plus (DE3)-RIPL
T2 sequence (Q05543 3-131 Q19A): T1 sequence (Q05543 3-131) with Q17A
Protocol: The equilibrium binding of Rtt103p CID constructs to differently phosphorylated CTD was analysed by fluorescence anisotropy. The CTD peptides were N‐terminally labelled with the 5,6‐carboxyfluorescein (FAM). The measurements were conducted on a FluoroLog‐3 spectrofluorometer (Horiba Jobin‐Yvon Edison, NJ). The instrument was equipped with a thermostatted cell holder with a Neslab RTE7 water bath (Thermo Scientific). Samples were excited with vertically polarized light at 467 nm, and both vertical and horizontal emissions were recorded at 516 nm. All measurements were conducted at 10°C in 35 mM KH2PO4, 100 mM KCl (pH 6.8). Each data point is an average of three measurements. The experimental binding isotherms were analysed by DynaFit using 1:1 model with non‐specific binding 39.

Molecule	Kd [1] [µM]	Kd [2] [µM]	binding with Rtt103p (in words) ([1]; fluorescence anisotropy, 10 nM FAM‐labelled CTD peptide, 10°C, pH 6.8)
C[C@@H](O)[C@H](NC(=O)[C@@H]1CCCN1C(=O)[C@H](CO)NC(=O)[C@H](Cc1ccc(O)cc1)NC(=O)[C@H](CO)NC(=O)[C@@H]1CCCN1C(=O)[C@H](CO)NC(=O)[C@@H](NC(=O)[C@@H]1CCCN1C(=O)[C@H](CO)NC(=O)[C@H](Cc1ccc(O)cc1)NC(=O)[C@H](CO)NC(=O)[C@@H]1CCCN1C(=O)c1ccc2c(c1)C(=O)OC21c2ccc(O)cc2Oc2cc(O)ccc21)[C@@H](C)OP(=O)(O)O)C(=O)N[C@@H](CO)C(=O)N1CCC[C@H]1C(=O)N[C@@H](CO)C(=O)O [pThr4‐CTD]	15 ± 1	48 ± 5	
C[C@@H](OP(=O)(O)O)[C@H](NC(=O)[C@@H]1CCCN1C(=O)[C@H](CO)NC(=O)[C@H](Cc1ccc(O)cc1)NC(=O)[C@H](CO)NC(=O)[C@@H]1CCCN1C(=O)[C@H](CO)NC(=O)[C@@H](NC(=O)[C@@H]1CCCN1C(=O)[C@H](CO)NC(=O)[C@H](Cc1ccc(O)cc1)NC(=O)[C@H](CO)NC(=O)[C@@H]1CCCN1C(=O)c1ccc2c(c1)C(=O)OC21c2ccc(O)cc2Oc2cc(O)ccc21)[C@@H](C)OP(=O)(O)O)C(=O)N[C@@H](CO)C(=O)N1CCC[C@H]1C(=O)N[C@@H](CO)C(=O)O [Doubly phosphorylated pThr4‐CTD]	6 ± 0.2		
C[C@@H](O)[C@H](NC(=O)[C@@H]1CCCN1C(=O)[C@H](CO)NC(=O)[C@H](Cc1ccc(O)cc1)NC(=O)[C@H](CO)NC(=O)[C@@H]1CCCN1C(=O)[C@H](CO)NC(=O)[C@@H](NC(=O)[C@@H]1CCCN1C(=O)[C@H](COP(=O)(O)O)NC(=O)[C@H](Cc1ccc(O)cc1)NC(=O)[C@H](CO)NC(=O)[C@@H]1CCCN1C(=O)c1ccc2c(c1)C(=O)OC21c2ccc(O)cc2Oc2cc(O)ccc21)[C@@H](C)OP(=O)(O)O)C(=O)N[C@@H](CO)C(=O)N1CCC[C@H]1C(=O)N[C@@H](CO)C(=O)O [PS YpSPpTSPS YSPTSPS]	43 ± 2		
PS pYSPTSPS YSPTSPS: FAM‐labelled CTD peptide with the pTyr1 mark in the central heptad ({FAM}-PS[pY]SPTSPSYSPTSPS)			completely abolished the binding
C[C@@H](O)[C@H](NC(=O)[C@@H]1CCCN1C(=O)[C@H](CO)NC(=O)[C@H](Cc1ccc(O)cc1)NC(=O)[C@H](CO)NC(=O)[C@@H]1CCCN1C(=O)[C@H](CO)NC(=O)[C@@H](NC(=O)[C@@H]1CCCN1C(=O)[C@H](COP(=O)(O)O)NC(=O)[C@H](Cc1ccc(O)cc1)NC(=O)[C@H](CO)NC(=O)[C@@H]1CCCN1C(=O)c1ccc2c(c1)C(=O)OC21c2ccc(O)cc2Oc2cc(O)ccc21)[C@@H](C)O)C(=O)N[C@@H](CO)C(=O)N1CCC[C@H]1C(=O)N[C@@H](CO)C(=O)O [pSer2‐CTD]	6 ± 0.2		
